Data set [1] has as its system mouse macrophage J774.2 cells. The conditions noted are these: cited from earlier work.
Data set [2] relates to E. coli. The data set is classed as cell-based, Escherichia coli. The conditions noted are these: 8 h. How it is done:
For serum stability test human blood was purchased from the Regional Blood Centre in Szeged (the use of human blood has been authorized by the Regional Hungarian Ethics Committee and approved by the Ethics Review Sector of DG RTD (European Commission) in connection with EK’s ERC AdG SymBiotics). The cells from 10 ml of EDTA-blood were centrifuged at 1500 × g for 1 min and washed several times in TBS buffer (10 mM Tris, pH: 7.2, 150 mM NaCl) until the supernatant, representing the serum, became colorless. The NCR169C17–38 peptide was added to the serum at 1:1 ratio and incubated at room temperature for 8 h. Subsequently, serial 2-fold dilutions of the peptide were prepared in PPB, with concentrations ranging from 100 to 0.2 µM and antimicrobial assay was done to determine the MBC values. Experiments were done in three biological replicates.

A further data set deals with E. coli total RNA. As to the kind of experiment: Gel retardation assay. The data set is classed as binding, Escherichia coli. The conditions noted are these: 100 ng E. coli total RNA, 10 or 100 µM peptide, 30 min at 37 °C. How it is done: (§1) The DNA- and RNA-binding abilities of NCR169C17–38, its parental peptide NCR169, and two shorter derivatives (NCR169_16–27 and NCR169_17–27) were initially evaluated using a gel retardation assay. In this setup, 100 ng of either E. coli genomic DNA or total RNA was incubated with 10 µM or 100 µM of each peptide for 30 min at 37 °C. Reaction mixtures, along with untreated controls, were then subjected to agarose gel electrophoresis, and the resulting nucleic acid migration patterns were examined for changes indicative of peptide binding. The interaction of NCR169C17–38 with circular plasmid DNA (pDEST-GBKT7) was also characterized using peptide concentrations ranging from 50 µM to 0.8 µM, prepared by 2-fold serial dilution. Experiments were done in three biological replicates.
(§2) To explore whether the NCR169C17–38 peptide has secondary intracellular targets of the bacterial cells beyond the primary membrane disruption, we tested its possible interaction with nucleic acids in gel retardation assays. A pilot experiment indicated strong DNA-binding capacity, prompting us to include the parental NCR169 peptide and the shorter derivatives NCR169_16–27 and NCR169_17–27 for comparison (Fig. 3.). […] Similar results were obtained with total E. coli RNA (Fig. 3.B). […]

For another data set, the system named is E. coli genomic DNA. As to the kind of experiment: Gel retardation assay. The conditions noted are these: 100 ng E. coli genomic DNA, 10 or 100 µM peptide, 30 min at 37 °C. It counts as binding, Escherichia coli. How it is done: as §1, §2
For data set [3], the system named is E. coli. Put plainly: Live/Dead staining (SYTO 9 / PI) of membrane integrity, confocal microscopy. It counts as cell-based, Escherichia coli. The conditions noted are these: 10 min. How it is done: Microbial cell membrane integrity or damage was assayed with Live/Dead staining. E. coli were grown as for the antimicrobial activity assay and washed with PPB. […] Untreated cells served as negative control. Cells were subsequently stained with 5 μM SYTO 9 and 5 μM propidium iodide (PI). After a 10-minute incubation in the dark, 5 µl of each cell suspension was placed on a microscope slide, covered with thin 2 % (w/v) agar slices, and examined using an Olympus Fluoview FV1000 confocal laser microscope at × 60 magnification. For SYTO 9, excitation was at 488 nm and emission was collected between 500 and 530 nm; for PI, excitation was at 543 nm with emission detected between 555 and 655 nm. Sequential scanning was used to avoid crosstalk of the fluorescent dyes.
Next, we investigated whether the application of NCR169C17–38 peptide affects membrane permeability of E. coli, and if so, to what extent and how rapidly these changes occur.

In data set [4] the test system is circular plasmid DNA (pDEST-GBKT7). As to the kind of experiment: Gel retardation assay. It counts as binding. The conditions noted are these: 250 ng circular plasmid DNA, peptide 50 µM to 0.8 µM. How it is done: as §1, §2
Data set [5] concerns Acinetobacter baumannii pre-formed biofilm. As to the kind of experiment: microbe, parasite or virus in culture. The data set is classed as cell-based. The conditions noted are these: for MBC: 24 h. How it is done:
For the biofilm eradication assay the difference was at the beginning of the experiments when bacteria were pre-cultured for 24 h or 72 h in MHB with a starting OD600 = 0.01. Then bacterial suspensions were removed from the wells followed by washing three times with 200 µl of 1/2 MHB. Subsequently fresh 1/10 MHB was added to the wells containing the respective dilutions of NCR169C17–38, meropenem or polymixin B and the treatment lasted either 3 h or 24 h. Experiments were done in three biological replicates.
To assess whether the NCR169C17–38 peptide or the tested antibiotics could eradicate pre-formed biofilms, A. baumannii was first cultured in MHB for 24 h, then treated with NCR169C17–38, meropenem or polymyxin B for either 3 h or 24 h, using the same concentration range as in the previous experiment. Both bacterial survival within the pre-formed biofilm and the amount of residual biofilm were assessed. […] In contrast, neither of the two antibiotics completely eliminated the bacteria within the tested concentration range. […] This 24 h of treatment was repeated on mature biofilm (pre-formed for 72 h) and the results were very similar (Supplementary Fig. 1.).

Another data set addresses Proteinase K (Parengyodontium album, UniProt P06873). Put plainly: Proteinase K treatment of peptide-DNA samples (recovery of SYBR Gold fluorescence). The conditions noted are these: Proteinase K 1 mg/ml added at 27 min to peptide-DNA-SYBR Gold samples, 10 µM peptide. How it is done:
In addition, DNA-binding kinetics were monitored in real time using a Hidex Sense plate reader at room temperature in three independent experiments. Reaction mixtures contained 100 ng of HindIII-digested lambda phage DNA in 1 × SYBR Gold (Thermo Scientific), either without peptide or with 10 µM of NCR169C17–38 (2.74041 µg), NCR169 (4.56545 µg), NCR169_16–27 (1.56597 µg), or NCR169_17–27 (1.40279 µg). Peptides were added either at the start (0 min) or at 14 min. Fluorescence from DNA-bound SYBR Gold was measured every 3 min (excitation 490 nm, emission 535 nm). At 27 min, proteinase K (1 mg/ml; 100 µg final) was added to peptide-treated samples to assess the effect on peptide–DNA binding. Experiments were done in three biological replicates.
The DNA-binding kinetics were quantified using SYBR Gold fluorescence (Fig. 3.D). […] To test if peptide removal would recover the DNA–SYBR Gold fluorescence to control values, Proteinase K was added at 27 min to all reactions. […] In contrast, fluorescence values in the NCR169 samples remained unchanged, while those of NCR169C17–38 or NCR169_17–27 increased slightly and gradually to the same limited extent.

The structures appear in SMILES notation. ≈ marks a conversion by molar mass, not a printed value. Like-named read-outs stand apart in the source and are kept apart here. Residues, ends and D or L forms follow the SMILES beside them.

Chain of Proteinase K (P06873 106-384): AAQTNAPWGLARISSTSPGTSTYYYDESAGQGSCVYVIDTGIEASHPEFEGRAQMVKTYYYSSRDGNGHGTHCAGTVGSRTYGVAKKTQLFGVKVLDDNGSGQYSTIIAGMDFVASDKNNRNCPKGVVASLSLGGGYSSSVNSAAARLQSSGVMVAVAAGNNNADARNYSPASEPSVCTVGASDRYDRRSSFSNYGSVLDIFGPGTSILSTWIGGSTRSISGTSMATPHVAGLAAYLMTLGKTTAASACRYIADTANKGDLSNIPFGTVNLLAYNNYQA

For `CC[C@H](C)[C@H](NC(=O)[C@H](CCCCN)NC(=O)[C@H](Cc1ccccc1)NC(=O)[C@H](CC(C)C)NC(=O)[C@@H]1CCCN1C(=O)[C@H](CCCCN)NC(=O)[C@H](CCCCN)NC(=O)[C@H](CO)NC(=O)[C@@H](N)CCCCN)C(=O)N[C@@H](Cc1c[nH]c2ccccc12)C(=O)N[C@@H](CCCCN)C(=O)N[C@@H](CS)C(=O)N[C@H](C(=O)N[C@@H](CCC(=O)O)C(=O)N[C@@H](CC(N)=O)C(=O)N[C@H](C(=O)N[C@@H](CS)C(=O)N[C@H](C(=O)N[C@@H](CC(C)C)C(=O)N[C@@H](Cc1c[nH]c2ccccc12)C(=O)N[C@@H](Cc1ccc(O)cc1)C(=O)N[C@@H](CCCCN)C(N)=O)C(C)C)C(C)C)C(C)C` [NCR169C17–38] (H-KSKKPLFKIWKCVENVCVLWYK-NH2; N-terminus assumed), the cytotoxicity result in data set [1] was “non-cytotoxic”. Further, the “MBC after pre-incubation in human serum” value in the data set on E. coli [2] was 3.1 µM (≈ 8.49 µg/mL). In addition, in the data set on E. coli total RNA, the “RNA binding, gel retardation” value is reported as “completely blocked RNA migration at high concentrations”. Also, in the data set with E. coli genomic DNA, the “DNA binding, gel retardation” value is given as “completely preventing DNA migration from the well at the lower concentration”. In addition, the “membrane integrity, SYTO 9 / PI staining” value with E. coli [3] (0.8 µM peptide) is recorded as “predominantly red-stained cells”; in the data set with E. coli [3] (1.6 µM peptide), “all cells appeared red”. Moreover, the “plasmid DNA binding, gel retardation” value in data set [4] is reported as “complete retention of DNA in the well at higher concentrations”. The “degradation of pre-formed biofilm” value in data set [5] (A. baumannii biofilm pre-formed 24 h, 24 h of treatment, Crystal Violet OD550) is reported as “successful even at sub-MBC level”. The MBC turned out to be 6.3 µM (≈ 17.3 µg/mL) in data set [5] (pre-formed biofilm, read-out: MBC, Eradication test after 3 h) and 12.5 µM (≈ 34.2 µg/mL) in data set [5] (pre-formed biofilm, read-out: MBC, Eradication test after 24 h). Besides, in data set [5] (pre-formed biofilm, 72 h), the “concentration degrading the mature biofilm (sub-MBC level)” value worked out at 3.1 µM. Also, on Proteinase K, the “sensitivity to Proteinase K treatment” value is recorded as “only partial sensitivity”.

The values are drawn from PMC12811501, “A plant-derived antimicrobial peptide with multiple mechanisms of action exhibiting antibacterial and antibiofilm activities comparable to or superior to polymyxin B” (Current Research in Microbial Sciences, 2025).
